Measurements published in patent publication US20230075422A1, “USE OF FUCOSYLATION INHIBITOR FOR PRODUCING AFUCOSYLATED ANTIBODY” (BRISTOL-MYERS SQUIBB COMPANY, priority 2019, published 2023).

Tests used:
Type in all cases: cell-based
[1] = test system: fucosylation of antibodies; experiment: Percentage of nonfucosylated antibodies for antibodies grown in the presence of fucosylation inhibitors (FIG. 2A); conditions: antibodies grown in presence of inhibitor at 1 mM to 6 mM
Protocol: The level of fucosylation in an antibody preparation may be determined by any method known in the art, including but not limited to gel electrophoresis, liquid chromatography, and mass spectrometry. Unless otherwise indicated, for the purposes of the present invention, the level of fucosylation in an antibody preparation is determined by hydrophilic interaction chromatography (or hydrophilic interaction liquid chromatography, HILIC), essentially as described at Example 2. To determine the level of fucosylation of an antibody preparation, samples are denatured treated with PNGase F to cleave N-linked glycans, which are then analyzed for fucose content. LC/MS of full-length antibody chains is an alternative method to detect the level of fucosylation of an antibody preparation, but mass spectroscopy is inherently less quantitative.
Nonfucosylated antibody preparations may be analyzed to determine the percentage of afucosylated heavy chains essentially as follows.
Antibodies are first denatured using urea and then reduced using DTT (dithiothreitol). Samples are then digested overnight at 37° C. with PNGase F to remove N-linked glycans. […] The resulting labeled glycans are then resolved on a HILIC column and the eluted fractions are quantified by fluorescence and dried. […] Untreated samples and BKF-treated samples are then analyzed by liquid chromatography. […]

[2] = test system: antibody production cell line; experiment: Antibody titers of the same antibody preparations (FIG. 2B); conditions: same preparations as FIG. 2A, inhibitor 1 mM to 6 mM, compared with GDP-D-rhamnose
[3] = test system: fucosylation of antibodies; experiment: Electropherograms of antibody preparations, glycoform peaks (FIGS. 3A-3C); conditions: cells cultured with 6 mM or 10 mM inhibitor vs no inhibitor
Protocol: FIGS. 3A, 3B and 3C show electropherograms of antibody preparations made using cells cultured without a fucosylation inhibitor or in the presence of 6 mM or 10 mM Ac-GDP-D-rhamnose, respectively. Peaks for different glycoforms are indicated, with white boxes for fucosylated species and dark boxes for nonfucosylated species.

Row | Compound | percentage of nonfucosylated antibodies [1] | antibody titer (yield) [2] | proportion of nonfucosylated species (glycoforms) [3]
1 | Ac-GDP-D-rhamnose | as effective as GDP-D-rhamnose | less deleterious effect on titer | increase the proportion of nonfucosylated species
2 | C[C@H]1O[C@H](OP(=O)(O)OP(=O)(O)OC[C@H]2O[C@@H](n3cnc4c(=O)[nH]c(N)nc43)[C@H](O)[C@@H]2O)[C@@H](O)[C@@H](O)[C@@H]1O [GDP-D-rhamnose] | increasing the percentage of nonfucosylated antibodies | – | –
